Test results from PMC2430599, “Solution Structure and Sugar-Binding Mechanism of Mouse Latrophilin-1 RBL: a 7TM Receptor-Attached Lectin-Like Domain” (Structure(London, England:1993), 2008).
Numbering of substitutions follows the chain as printed. Several values for one entry are separate records, joined by “and”; a condition that tells them apart may be missing. Identical values can stand only once.

What was measured:
[1] = target: T1, RBL domain of mouse Lat-1 (WT) (Mus musculus, UniProt Q80TR1); assay: NMR chemical shift perturbation titration of carbohydrates, wild-type RBL; type: binding; conditions: for Kd, WT / Kd: NMR titration, 30°C, 20 mM sodium phosphate pH 7.0, error from curve fitting, NBD = no binding detected (up to 100 mM compound)
T1 construct: Analytical ultracentrifugation experiments on RBL (residues 30–134) and larger constructs indicated a monomer in solution; α-factor signal propeptide (secretion leader) (N, cleaved yes); made in house; host or cells: Pichia pastoris strain X-33
T1 sequence (Q80TR1 30-134): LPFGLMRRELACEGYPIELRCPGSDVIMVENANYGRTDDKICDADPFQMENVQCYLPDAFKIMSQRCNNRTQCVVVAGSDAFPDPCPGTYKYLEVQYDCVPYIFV

[2] = target: T2, RBL E42A (Mus musculus, UniProt Q80TR1, E42A); assay: NMR titration, RBL E42A mutant; conditions: NBD = no binding detected
T2 construct: Analytical ultracentrifugation experiments on RBL (residues 30–134) and larger constructs indicated a monomer in solution; α-factor signal propeptide (secretion leader) (N, cleaved yes); made in house; host or cells: Pichia pastoris strain X-33
T2 sequence (Q80TR1 30-134 E42A): T1 sequence (Q80TR1 30-134) with E13A

[3] = target: T3, RBL E42R (Mus musculus, UniProt Q80TR1, E42R); assay: NMR titration, RBL E42R mutant; conditions: NBD = no binding detected
T3 construct: Analytical ultracentrifugation experiments on RBL (residues 30–134) and larger constructs indicated a monomer in solution; α-factor signal propeptide (secretion leader) (N, cleaved yes); made in house; host or cells: Pichia pastoris strain X-33
T3 sequence (Q80TR1 30-134 E42R): T1 sequence (Q80TR1 30-134) with E13R

[4] = target: T4, RBL K120R (Mus musculus, UniProt Q80TR1, K120R); assay: NMR titration, RBL K120R mutant; conditions: NBD = no binding detected
T4 construct: Analytical ultracentrifugation experiments on RBL (residues 30–134) and larger constructs indicated a monomer in solution; α-factor signal propeptide (secretion leader) (N, cleaved yes); made in house; host or cells: Pichia pastoris strain X-33
T4 sequence (Q80TR1 30-134 K120R): T1 sequence (Q80TR1 30-134) with K91R

[5] = target: T5, RBL K120A (Mus musculus, UniProt Q80TR1, K120A); assay: NMR titration, RBL K120A mutant; conditions: NBD = no binding detected
T5 construct: Analytical ultracentrifugation experiments on RBL (residues 30–134) and larger constructs indicated a monomer in solution; α-factor signal propeptide (secretion leader) (N, cleaved yes); made in house; host or cells: Pichia pastoris strain X-33
T5 sequence (Q80TR1 30-134 K120A): T1 sequence (Q80TR1 30-134) with K91A

[6] = target: SUEL (Heliocidaris crassispina, UniProt P22031); assay: biochemical; type: binding, sea urchin
[7] = target: T6, RBL domain of mouse Lat-1 (Mus musculus, UniProt Q80TR1); assay: Printed glycan array chip screen with AlexaFluor 488 labelled RBL (Consortium for Functional Glycomics); type: binding
T6 construct: Analytical ultracentrifugation experiments on RBL (residues 30–134) and larger constructs indicated a monomer in solution; α-factor signal propeptide (secretion leader) (N, cleaved yes); made in house; host or cells: Pichia pastoris strain X-33
T6 sequence (Q80TR1 30-134): T1 sequence (Q80TR1 30-134)

SUEL, sequence (P22031 whole entry, the tested form may be a part): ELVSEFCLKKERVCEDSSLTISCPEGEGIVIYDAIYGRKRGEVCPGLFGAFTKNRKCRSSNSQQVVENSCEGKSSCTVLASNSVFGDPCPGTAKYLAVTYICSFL

Molecule | Kd, WT [1] | Kd [1] | also measured
OC1OC[C@@H](O)[C@@H](O)[C@@H]1O (stereo partly drawn) [D-arabinose] | NBD | – | –
C[C@H]1OC(O)[C@H](O)[C@@H](O)[C@H]1O (stereo partly drawn) [D-fucose] | – | 61 ± 1.3 mM | –
OC[C@H]1OC(O)[C@H](O)[C@@H](O)[C@H]1O (stereo partly drawn) [D-galactose] | – | 33.6 ± 0.4 mM | Kd, E42A [2]: NBD; Kd, E42R [3]: NBD; Kd, K120R [4]: NBD; Kd, K120A [5]: NBD
OC[C@H]1OC(O)[C@H](O)[C@@H](O)[C@@H]1O (stereo partly drawn) [D-glucose] | NBD | – | –
OC[C@H]1OC(O)[C@@H](O)[C@@H](O)[C@@H]1O (stereo partly drawn) [D-mannose] | NBD | – | –
O[C@@H]1[C@@H](O)[C@@H](O)CO[C@H]1O [L-arabinose] | – | 75 ± 1.3 mM | –
C[C@@H]1OC(O)[C@H](O)[C@H](O)[C@H]1O (stereo partly drawn) [L-rhamnose] | – | 1.8 mM and 1.78 mM | Kd, E42A [2]: NBD; Kd, E42R [3]: NBD; Kd, K120R [4]: NBD; Kd, K120A [5]: NBD; Kd [6]: 0.1 to 0.2 mM; affinity of SUEL relative to Lat-1 RBL (times tighter) ([6]; SUEL Kd vs Lat-1 RBL Kd 1.8 mM, ref Hosono et al., 1999): 10
OC[C@H]1O[C@H](OCC2O[C@@H](O)[C@H](O)[C@@H](O)[C@@H]2O)[C@H](O)[C@@H](O)[C@H]1O (stereo partly shown) [Melibiose] | – | 33.3 ± 0.5 mM | –
CC(=O)N[C@@H]1[C@@H](O)[C@@H](O)[C@@H](CO)O[C@@H]1O [N-acetyl galactosamine] | NBD | – | –
C[C@@H]1O[C@@H](O[C@H]2C[C@@H](O)[C@]3(CO)[C@H]4[C@H](O)C[C@]5(C)[C@@H](C6=CC(=O)OC6)CC[C@]5(O)[C@@H]4CC[C@]3(O)C2)[C@H](O)[C@H](O)[C@H]1O [Ouabain] | – | 2.21 ± 0.03 mM | –
Galα1-3(Fucα1-2)Galβ1-3GlcNAcβ-Sp0 [glycan #95] | – | – | binding in NMR titration compared to galactose ([1]; NMR titration with glycan as ligand): did not show stronger or altered binding compared to galactose; binding on immobilized glycan array ([7]; fluorescently labeled RBL, glycan array version 3.0, 320 glycan targets, triplicate): any interaction; level of fluorescent signal relative to what is commonly found in this assay ([7]; glycan array version 3.0): approximately 1/20
Heparin | NBD | – | –

More lines, main results first:

Kd, WT [1] | Molecule | Kd [1] | also measured
NBD | O=C[C@H](O)[C@@H](O)[C@H](O)[C@H](O)C(=O)O [D-glucuronic acid] | – | –
NBD ^c | C[C@H](O)[C@@H](O)[C@@H](O)[C@H](O)C=O [L-fucose] | – | –
NBD | CC(=O)N[C@@H]1[C@@H](O)[C@H](O)[C@@H](CO)O[C@H]1O [N-acetyl glucosamine] | – | –
NBD | CC(=O)N[C@H]1[C@H]([C@H](O)[C@H](O)CO)OC(O)(C(=O)O)C[C@@H]1O (stereo partly shown) [N-acetyl neuraminic acid] | – | –
